What was measured:
[1] = biological target: T1, Alkaline phosphatase, tissue-nonspecific isozyme (Bos taurus, UniProt P09487); assay: Inhibition of bovine TNAP using CDP-star as substrate preincubated for 5 to 7 mins followed by substrate addition measured after 15 mins by spectrophotometric method
T1 sequence (P09487 whole entry): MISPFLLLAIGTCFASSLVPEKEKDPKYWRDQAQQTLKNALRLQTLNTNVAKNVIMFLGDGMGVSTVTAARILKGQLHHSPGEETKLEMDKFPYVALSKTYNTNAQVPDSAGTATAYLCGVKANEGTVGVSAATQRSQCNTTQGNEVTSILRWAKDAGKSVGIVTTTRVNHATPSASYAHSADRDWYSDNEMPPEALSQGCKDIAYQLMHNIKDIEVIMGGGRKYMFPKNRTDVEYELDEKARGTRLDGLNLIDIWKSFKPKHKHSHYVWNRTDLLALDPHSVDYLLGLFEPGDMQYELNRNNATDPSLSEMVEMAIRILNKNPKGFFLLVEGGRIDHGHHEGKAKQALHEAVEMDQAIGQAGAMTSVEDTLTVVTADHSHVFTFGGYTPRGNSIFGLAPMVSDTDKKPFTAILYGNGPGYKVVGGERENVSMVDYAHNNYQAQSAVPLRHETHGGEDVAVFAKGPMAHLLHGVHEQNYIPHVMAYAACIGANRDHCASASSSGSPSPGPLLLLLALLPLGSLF

[2] = biological target: Intestinal-type alkaline phosphatase (Bos taurus, UniProt P19111); assay: Inhibition of calf intestinal alkaline phosphatase using CDP-star as substrate preincubated for 5 to 7 mins followed by substrate addition measured after 15 mins by spectrophotometric method
[3] = biological target: Intestinal-type alkaline phosphatase (Bos taurus) (UniProt P19111); assay: Inhibition of calf intestinal alkaline phosphatase at 0.2 mM using CDP-star as substrate preincubated for 5 to 7 mins followed by substrate addition measured after 15 mins by spectrophotometric method
[4] = biological target: Intestinal-type alkaline phosphatase (Bos taurus) (UniProt P19111); assay: Potency index, ratio of L-phenylalanine IC50 to test compound IC50 for calf intestinal alkaline phosphatase
[5] = biological target: T2, Alkaline phosphatase, tissue-nonspecific isozyme (Bos taurus) (UniProt P09487); assay: Inhibition of bovine TNAP at 0.2 mM using CDP-star as substrate preincubated for 5 to 7 mins followed by substrate addition measured after 15 mins by spectrophotometric method
T2 sequence (whole entry): T1 sequence (P09487 whole entry)

Sequence of Intestinal-type alkaline phosphatase (Bos taurus) (P19111 20-506 limits assumed): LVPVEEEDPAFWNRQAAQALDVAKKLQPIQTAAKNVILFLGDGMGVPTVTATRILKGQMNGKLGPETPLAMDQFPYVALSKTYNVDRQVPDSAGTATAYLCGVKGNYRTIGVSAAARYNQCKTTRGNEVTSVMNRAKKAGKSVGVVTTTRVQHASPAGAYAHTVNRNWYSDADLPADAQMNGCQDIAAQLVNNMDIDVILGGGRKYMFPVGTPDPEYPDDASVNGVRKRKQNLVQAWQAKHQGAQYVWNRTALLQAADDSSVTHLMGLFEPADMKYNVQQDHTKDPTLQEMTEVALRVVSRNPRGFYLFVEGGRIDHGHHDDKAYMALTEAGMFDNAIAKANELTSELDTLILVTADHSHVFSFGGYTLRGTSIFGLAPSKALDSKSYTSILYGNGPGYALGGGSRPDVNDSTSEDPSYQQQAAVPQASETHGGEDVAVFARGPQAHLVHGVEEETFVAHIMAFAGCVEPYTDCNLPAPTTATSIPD
Sequence of Intestinal-type alkaline phosphatase (P19111 whole entry): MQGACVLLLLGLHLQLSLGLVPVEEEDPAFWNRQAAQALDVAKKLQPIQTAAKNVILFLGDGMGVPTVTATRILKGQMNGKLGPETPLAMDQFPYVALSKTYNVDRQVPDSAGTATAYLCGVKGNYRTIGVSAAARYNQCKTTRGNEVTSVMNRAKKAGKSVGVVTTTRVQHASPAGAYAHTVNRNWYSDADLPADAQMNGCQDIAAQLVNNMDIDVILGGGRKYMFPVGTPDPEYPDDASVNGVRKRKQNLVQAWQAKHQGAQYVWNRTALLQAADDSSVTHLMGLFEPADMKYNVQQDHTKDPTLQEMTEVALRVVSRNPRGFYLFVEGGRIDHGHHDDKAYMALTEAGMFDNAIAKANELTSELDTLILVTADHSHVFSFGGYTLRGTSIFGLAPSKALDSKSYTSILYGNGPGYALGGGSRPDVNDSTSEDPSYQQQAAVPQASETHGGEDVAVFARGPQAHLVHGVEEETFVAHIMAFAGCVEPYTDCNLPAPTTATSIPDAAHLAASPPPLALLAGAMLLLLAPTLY

Compound	IC50 [1] [µM]	IC50 [2] [µM]	inhibition [3] [%]	Ratio IC50 [4]	inhibition [5] [%]
CCCCCc1cc(=O)c2cc([N+](=O)[O-])ccc2[nH]1	44.8	16.7			
CCCCCc1c(-c2ccc(C(F)(F)F)cc2)c(=O)c2cc([N+](=O)[O-])ccc2n1Cc1ccc(OC)cc1	38.5		48.6		
Cc1ccc(-c2[nH]c3ccc([N+](=O)[O-])cc3c(=O)c2-c2ccc(C(F)(F)F)cc2)cc1	2.69	4.38			
COc1ccc(Cn2c(-c3ccc(C)cc3)cc(=O)c3cc([N+](=O)[O-])ccc32)cc1	133		48.6		
COc1ccc(Cn2c(-c3ccc(C)cc3)c(-c3ccc(OC)cc3)c(=O)c3cc([N+](=O)[O-])ccc32)cc1		2.04		40	46.8
COc1ccc(Cn2c(-c3ccc(C)cc3)c(Br)c(=O)c3cc([N+](=O)[O-])ccc32)cc1	4.22	2.43			
Cc1ccc(-c2c(Br)c(=O)c3cc([N+](=O)[O-])ccc3n2C(C)c2ccccc2)cc1 (stereo not drawn)	1.34	2.47			
Cc1ccc(-c2[nH]c3ccc([N+](=O)[O-])cc3c(=O)c2Br)cc1	6.47	12.1			
Cc1ccc(-c2[nH]c3ccc(NC(=O)C(F)(F)F)cc3c(=O)c2-c2ccc(C)cc2)cc1	6.02	1.67			
COc1ccc(Cn2c(-c3ccc(C)cc3)c(-c3ccc(C)cc3)c(=O)c3cc(N)ccc32)cc1	15.1		38.7		
COc1ccc(-c2c(-c3ccc(C)cc3)[nH]c3ccc(N)cc3c2=O)cc1	14.8	1.06			
CCc1ccc(-c2c(-c3ccc(C)cc3)n(Cc3ccc(OC)cc3)c3ccc([N+](=O)[O-])cc3c2=O)cc1	1.66	5.75			
CCCCCc1c(Br)c(=O)c2cc([N+](=O)[O-])ccc2n1Cc1ccc(OC)cc1	9.51	122			
COc1ccc(Cn2c(-c3ccc(C)cc3)c(-c3ccccc3C=O)c(=O)c3cc([N+](=O)[O-])ccc32)cc1	2.35	192			
Cc1ccc(-c2cc(=O)c3cc([N+](=O)[O-])ccc3[nH]2)cc1	2.56	6.25			
COc1ccc(Cn2c(-c3ccc(C)cc3)c(-c3ccc(C)cc3)c(=O)c3cc([N+](=O)[O-])ccc32)cc1		2.92		40	46.1
CCCCCc1[nH]c2ccc([N+](=O)[O-])cc2c(=O)c1Br	17.2	3.06			
CCCCCc1cc(=O)c2cc([N+](=O)[O-])ccc2n1Cc1ccc(OC)cc1	1.51	1.38			
COc1ccc(Cn2c(-c3ccc(C)cc3)c(C(F)(F)F)c(=O)c3cc([N+](=O)[O-])ccc32)cc1	4.53	4.58			
Cc1ccc(-c2cc(=O)c3cc(N)ccc3[nH]2)cc1	19.4	16.2			
COc1ccc(C(C)n2c(-c3ccc(C)cc3)cc(=O)c3cc([N+](=O)[O-])ccc32)cc1 (stereo not drawn)	17.9	4.75			
COc1ccc(Cn2c(-c3ccc(C)cc3)c(-c3ccc(C(F)(F)F)cc3)c(=O)c3cc([N+](=O)[O-])ccc32)cc1	6.19	8.34			
COc1ccc(Cn2c(-c3ccc(C)cc3)c(-c3cc(C)cc(C)c3)c(=O)c3cc([N+](=O)[O-])ccc32)cc1	4.74	28.7			
